From the NIST ThermoML archive (doi:10.1021/je0504111)
± gives the expanded uncertainty stated by the source.

Legend:
[1] = refractive index (Na D-line) (dimensionless); conditions: 298.15 K; 101.33 kPa; Liquid; Standard Abbe refractometry
[2] = 298.15 K; for surface tension liquid-gas: Drop volume; for mass density: 101.33 kPa, Liquid
[3] = refractive index (Na D-line) (dimensionless); xn = mol fraction of the nth substance listed; conditions: 298.15 K, 101 kPa, Liquid
[4] = xn = mol fraction of the nth substance listed; conditions: 298.15 K; for surface tension liquid-gas: Drop volume; for mass density: 101 kPa, Liquid

Compound: Cc1cccc(C)c1 [1,3-dimethylbenzene]
- refractive index [1]: 1.4945 ± 0.0004
- surface tension liquid-gas [2]: 28.03 ± 0.21 mN/m
- mass density [2]: 859.78 ± 0.63 kg/m3

Compound: CCCOC(=O)CC [propyl propanoate] + Cc1cccc(C)c1
- refractive index ([3]; x1 = 0.0448): 1.4894 ± 0.0007
- refractive index ([3]; x1 = 0.1176): 1.4814 ± 0.0007
- refractive index ([3]; x1 = 0.1702): 1.4756 ± 0.0007
- refractive index ([3]; x1 = 0.2173): 1.4704 ± 0.0007
- refractive index ([3]; x1 = 0.3134): 1.4599 ± 0.0007
- refractive index ([3]; x1 = 0.3923): 1.4515 ± 0.0007
- refractive index ([3]; x1 = 0.4461): 1.4458 ± 0.0007
- refractive index ([3]; x1 = 0.4902): 1.4412 ± 0.0007
- refractive index ([3]; x1 = 0.5421): 1.4358 ± 0.0007
- refractive index ([3]; x1 = 0.5906): 1.4308 ± 0.0007
- refractive index ([3]; x1 = 0.6442): 1.4254 ± 0.0007
- refractive index ([3]; x1 = 0.7474): 1.4151 ± 0.0007
- refractive index ([3]; x1 = 0.7982): 1.4101 ± 0.0007
- refractive index ([3]; x1 = 0.8483): 1.4052 ± 0.0007
- refractive index ([3]; x1 = 0.8942): 1.4008 ± 0.0007
- refractive index ([3]; x1 = 0.9522): 1.3952 ± 0.0007

Compound: CCCOC(=O)CC [propyl propanoate]
- refractive index [1]: 1.3905 ± 0.0004
- surface tension liquid-gas [2]: 24.1 ± 0.19 mN/m
- mass density [2]: 875.53 ± 0.61 kg/m3

Compound: CCCCCC [hexane]
- refractive index [1]: 1.3723 ± 0.0004
- surface tension liquid-gas [2]: 17.91 ± 0.13 mN/m
- mass density [2]: 654.7 ± 0.47 kg/m3

Compound: Cc1cccc(C)c1 [1,3-dimethylbenzene] + CCCCCC
- refractive index ([3]; x2 = 0.0431): 1.4891 ± 0.0007
- refractive index ([3]; x2 = 0.083): 1.484 ± 0.0007
- refractive index ([3]; x2 = 0.1562): 1.4748 ± 0.0007
- refractive index ([3]; x2 = 0.2093): 1.4682 ± 0.0007
- refractive index ([3]; x2 = 0.2997): 1.4569 ± 0.0007
- refractive index ([3]; x2 = 0.3521): 1.4502 ± 0.0007
- refractive index ([3]; x2 = 0.4276): 1.4409 ± 0.0007
- refractive index ([3]; x2 = 0.5167): 1.43 ± 0.0007
- refractive index ([3]; x2 = 0.5798): 1.4223 ± 0.0006
- refractive index ([3]; x2 = 0.6769): 1.4106 ± 0.0006
- refractive index ([3]; x2 = 0.7318): 1.404 ± 0.0006
- refractive index ([3]; x2 = 0.8329): 1.392 ± 0.0006
- refractive index ([3]; x2 = 0.8836): 1.386 ± 0.0006
- refractive index ([3]; x2 = 0.9325): 1.3803 ± 0.0006
- surface tension liquid-gas ([4]; x2 = 0.0522): 27.13 ± 0.2 mN/m
- surface tension liquid-gas ([4]; x2 = 0.0797): 26.69 ± 0.2 mN/m
- surface tension liquid-gas ([4]; x2 = 0.1442): 25.66 ± 0.19 mN/m
- surface tension liquid-gas ([4]; x2 = 0.2008): 24.85 ± 0.18 mN/m
- surface tension liquid-gas ([4]; x2 = 0.2281): 24.48 ± 0.18 mN/m
- surface tension liquid-gas ([4]; x2 = 0.3075): 23.5 ± 0.17 mN/m
- surface tension liquid-gas ([4]; x2 = 0.3603): 22.91 ± 0.17 mN/m
- surface tension liquid-gas ([4]; x2 = 0.4106): 22.39 ± 0.16 mN/m
- surface tension liquid-gas ([4]; x2 = 0.4174): 22.33 ± 0.16 mN/m
- surface tension liquid-gas ([4]; x2 = 0.5086): 21.5 ± 0.16 mN/m
- surface tension liquid-gas ([4]; x2 = 0.5677): 21.01 ± 0.15 mN/m
- surface tension liquid-gas ([4]; x2 = 0.6431): 20.41 ± 0.15 mN/m
- surface tension liquid-gas ([4]; x2 = 0.6771): 20.15 ± 0.15 mN/m
- surface tension liquid-gas ([4]; x2 = 0.7418): 19.7 ± 0.14 mN/m
- surface tension liquid-gas ([4]; x2 = 0.7668): 19.54 ± 0.14 mN/m
- surface tension liquid-gas ([4]; x2 = 0.8545): 18.99 ± 0.14 mN/m
- surface tension liquid-gas ([4]; x2 = 0.8802): 18.83 ± 0.14 mN/m
- surface tension liquid-gas ([4]; x2 = 0.96): 18.29 ± 0.14 mN/m
- mass density ([4]; x2 = 0.0431): 850.57 ± 0.55 kg/m3
- mass density ([4]; x2 = 0.0825): 842.28 ± 0.55 kg/m3
- mass density ([4]; x2 = 0.1572): 826.64 ± 0.55 kg/m3
- mass density ([4]; x2 = 0.2093): 815.69 ± 0.55 kg/m3
- mass density ([4]; x2 = 0.2575): 805.59 ± 0.56 kg/m3
- mass density ([4]; x2 = 0.2997): 796.8 ± 0.56 kg/m3
- mass density ([4]; x2 = 0.3563): 785.03 ± 0.56 kg/m3
- mass density ([4]; x2 = 0.4278): 770.24 ± 0.57 kg/m3
- mass density ([4]; x2 = 0.483): 758.86 ± 0.58 kg/m3
- mass density ([4]; x2 = 0.5167): 751.98 ± 0.58 kg/m3
- mass density ([4]; x2 = 0.5833): 738.31 ± 0.6 kg/m3
- mass density ([4]; x2 = 0.6294): 728.97 ± 0.6 kg/m3
- mass density ([4]; x2 = 0.6769): 719.32 ± 0.61 kg/m3
- mass density ([4]; x2 = 0.7318): 708.21 ± 0.62 kg/m3
- mass density ([4]; x2 = 0.7817): 698.13 ± 0.63 kg/m3
- mass density ([4]; x2 = 0.8329): 687.89 ± 0.65 kg/m3
- mass density ([4]; x2 = 0.8914): 676.22 ± 0.66 kg/m3
- mass density ([4]; x2 = 0.9446): 665.65 ± 0.67 kg/m3
